Key:
Assay in all cases: SILAC proteomics / in-gel fluorescence, competition of probe 13-t labeling by 3a
[1] = molecular target: proteins of HEK293T cells transiently overexpressing caspase-6 (Homo sapiens, UniProt P26641); conditions: Comp; protein EEF1G P26641
[2] = molecular target: proteins of HEK293T cells transiently overexpressing caspase-6 (Homo sapiens, UniProt P62753); conditions: Comp; protein RPS6 P62753
[3] = molecular target: proteins of HEK293T cells transiently overexpressing caspase-6 (Homo sapiens, UniProt Q04917); conditions: Comp; protein YWHAH Q04917
[4] = molecular target: proteins of HEK293T cells transiently overexpressing caspase-6 (Homo sapiens, UniProt Q07020); conditions: Comp; protein RPL18 Q07020
[5] = molecular target: proteins of HEK293T cells transiently overexpressing caspase-6 (Homo sapiens, UniProt Q14204)
[6] = molecular target: proteins of HEK293T cells transiently overexpressing caspase-6 (Homo sapiens, UniProt P38606); conditions: Comp; protein ATP6V1A P38606
[7] = molecular target: proteins of HEK293T cells transiently overexpressing caspase-6 (Homo sapiens, UniProt Q13347)
[8] = molecular target: proteins of HEK293T cells transiently overexpressing caspase-6 (Homo sapiens, UniProt P13797); conditions: Comp; protein PLS3 P13797
[9] = molecular target: proteins of HEK293T cells transiently overexpressing caspase-6 (Homo sapiens, UniProt P62424); conditions: Comp; protein RPL7A P62424
[10] = molecular target: proteins of HEK293T cells transiently overexpressing caspase-6 (Homo sapiens, UniProt Q9Y262)
[11] = molecular target: proteins of HEK293T cells transiently overexpressing caspase-6 (Homo sapiens, UniProt P62906); conditions: Comp; protein RPL10A P62906
[12] = molecular target: proteins of HEK293T cells transiently overexpressing caspase-6 (Homo sapiens, UniProt Q9Y2X3); conditions: Comp; protein NOP58 Q9Y2X3
[13] = molecular target: proteins of HEK293T cells transiently overexpressing caspase-6 (Homo sapiens, UniProt P55884); conditions: Comp; protein EIF3B P55884
[14] = molecular target: proteins of HEK293T cells transiently overexpressing caspase-6 (Homo sapiens, UniProt P60842); conditions: Comp; protein EIF4A1 P60842
[15] = molecular target: proteins of HEK293T cells transiently overexpressing caspase-6 (Homo sapiens, UniProt P46782); conditions: Comp; protein RPS5 P46782
[16] = molecular target: proteins of HEK293T cells transiently overexpressing caspase-6 (Homo sapiens, UniProt Q99460)
[17] = molecular target: proteins of HEK293T cells transiently overexpressing caspase-6 (Homo sapiens, UniProt Q15393); conditions: Comp; protein SF3B3 Q15393
[18] = molecular target: proteins of HEK293T cells transiently overexpressing caspase-6 (Homo sapiens, UniProt Q14974); conditions: Comp; protein KPNB1 Q14974
[19] = protein DYNC1H1 (Q14204), Exp Comp, analysis C6, p 0.1250, 4 peptides
[20] = protein EIF3I (Q13347), Exp Comp, analysis C6, p 0.0625, 5 peptides
[21] = protein EIF3L (Q9Y262), Exp Comp, analysis C6, p 0.8438, 6 peptides
[22] = protein PSMD1 (Q99460), Exp Comp, analysis C6, p 0.1250, 4 peptides

proteins of HEK293T cells transiently overexpressing caspase-6 (Homo sapiens, UniProt Q99460), sequence (Q99460 whole entry): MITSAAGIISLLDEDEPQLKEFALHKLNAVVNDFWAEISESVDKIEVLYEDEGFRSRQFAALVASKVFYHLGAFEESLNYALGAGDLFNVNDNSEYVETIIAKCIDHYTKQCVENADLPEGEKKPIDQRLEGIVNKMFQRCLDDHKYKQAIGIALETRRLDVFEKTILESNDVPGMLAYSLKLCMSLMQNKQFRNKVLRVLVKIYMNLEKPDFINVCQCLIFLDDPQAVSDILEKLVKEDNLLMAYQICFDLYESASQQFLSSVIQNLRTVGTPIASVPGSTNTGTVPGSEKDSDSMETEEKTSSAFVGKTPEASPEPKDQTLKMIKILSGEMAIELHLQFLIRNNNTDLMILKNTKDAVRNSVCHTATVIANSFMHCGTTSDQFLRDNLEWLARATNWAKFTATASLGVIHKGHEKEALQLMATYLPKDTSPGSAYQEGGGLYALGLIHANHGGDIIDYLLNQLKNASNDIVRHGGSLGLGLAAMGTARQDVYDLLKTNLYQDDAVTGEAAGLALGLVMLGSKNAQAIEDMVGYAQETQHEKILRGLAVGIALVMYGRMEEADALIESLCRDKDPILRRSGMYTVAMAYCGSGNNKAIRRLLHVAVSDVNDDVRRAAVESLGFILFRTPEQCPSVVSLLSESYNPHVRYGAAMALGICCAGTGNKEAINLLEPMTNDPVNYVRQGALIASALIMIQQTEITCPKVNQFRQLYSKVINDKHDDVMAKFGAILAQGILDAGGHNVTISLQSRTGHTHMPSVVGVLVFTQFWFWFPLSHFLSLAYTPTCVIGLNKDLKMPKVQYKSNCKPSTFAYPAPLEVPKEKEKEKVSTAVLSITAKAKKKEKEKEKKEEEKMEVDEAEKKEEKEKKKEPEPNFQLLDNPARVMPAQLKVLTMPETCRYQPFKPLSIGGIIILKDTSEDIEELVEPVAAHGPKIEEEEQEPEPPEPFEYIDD
proteins of HEK293T cells transiently overexpressing caspase-6 (Homo sapiens, UniProt Q9Y262), sequence (Q9Y262 whole entry): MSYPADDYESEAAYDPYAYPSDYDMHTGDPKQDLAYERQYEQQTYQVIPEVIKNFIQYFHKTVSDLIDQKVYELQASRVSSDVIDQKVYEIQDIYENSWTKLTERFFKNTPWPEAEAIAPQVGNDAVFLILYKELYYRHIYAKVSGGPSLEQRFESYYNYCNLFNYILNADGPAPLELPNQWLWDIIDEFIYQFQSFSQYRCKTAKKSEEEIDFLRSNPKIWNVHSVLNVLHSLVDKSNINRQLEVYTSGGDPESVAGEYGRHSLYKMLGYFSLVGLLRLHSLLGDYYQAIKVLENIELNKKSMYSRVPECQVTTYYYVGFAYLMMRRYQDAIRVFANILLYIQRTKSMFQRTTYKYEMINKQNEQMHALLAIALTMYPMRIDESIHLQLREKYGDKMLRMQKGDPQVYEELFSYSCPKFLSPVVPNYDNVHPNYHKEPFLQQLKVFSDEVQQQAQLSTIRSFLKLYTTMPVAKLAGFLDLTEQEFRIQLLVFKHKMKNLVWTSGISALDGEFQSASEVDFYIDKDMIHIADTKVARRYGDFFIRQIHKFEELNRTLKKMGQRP
proteins of HEK293T cells transiently overexpressing caspase-6 (Homo sapiens, UniProt Q13347), sequence (Q13347 whole entry): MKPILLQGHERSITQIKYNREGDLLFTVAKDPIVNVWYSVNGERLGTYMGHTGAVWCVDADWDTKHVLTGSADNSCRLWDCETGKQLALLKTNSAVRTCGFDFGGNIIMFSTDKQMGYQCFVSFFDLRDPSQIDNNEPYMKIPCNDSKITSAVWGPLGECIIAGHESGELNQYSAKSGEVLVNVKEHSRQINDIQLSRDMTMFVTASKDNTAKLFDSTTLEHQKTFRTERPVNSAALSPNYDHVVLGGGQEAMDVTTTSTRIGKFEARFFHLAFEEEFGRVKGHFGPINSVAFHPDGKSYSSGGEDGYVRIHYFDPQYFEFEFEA
proteins of HEK293T cells transiently overexpressing caspase-6 (Homo sapiens, UniProt P60842), sequence (P60842 whole entry): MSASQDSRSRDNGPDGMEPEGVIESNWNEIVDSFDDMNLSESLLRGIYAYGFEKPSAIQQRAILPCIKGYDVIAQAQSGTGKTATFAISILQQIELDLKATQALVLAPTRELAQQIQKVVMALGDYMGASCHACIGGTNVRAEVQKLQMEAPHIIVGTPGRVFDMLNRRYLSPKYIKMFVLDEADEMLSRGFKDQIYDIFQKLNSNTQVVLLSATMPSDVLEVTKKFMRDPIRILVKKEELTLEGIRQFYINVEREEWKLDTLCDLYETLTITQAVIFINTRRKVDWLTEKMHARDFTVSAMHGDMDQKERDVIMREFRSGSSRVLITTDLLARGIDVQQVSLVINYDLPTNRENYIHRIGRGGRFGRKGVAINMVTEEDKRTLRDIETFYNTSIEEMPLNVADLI
proteins of HEK293T cells transiently overexpressing caspase-6 (Homo sapiens, UniProt P26641), sequence (P26641 whole entry): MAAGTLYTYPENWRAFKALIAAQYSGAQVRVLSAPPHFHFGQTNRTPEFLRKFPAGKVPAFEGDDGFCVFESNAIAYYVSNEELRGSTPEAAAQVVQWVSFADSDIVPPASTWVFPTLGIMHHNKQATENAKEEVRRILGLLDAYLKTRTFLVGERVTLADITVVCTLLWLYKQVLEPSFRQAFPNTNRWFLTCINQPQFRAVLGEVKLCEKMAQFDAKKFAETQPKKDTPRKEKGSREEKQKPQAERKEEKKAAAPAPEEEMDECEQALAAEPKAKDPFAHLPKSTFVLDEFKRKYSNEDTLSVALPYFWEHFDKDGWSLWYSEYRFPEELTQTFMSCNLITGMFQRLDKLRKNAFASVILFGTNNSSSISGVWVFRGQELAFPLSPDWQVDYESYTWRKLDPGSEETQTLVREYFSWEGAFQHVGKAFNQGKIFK
proteins of HEK293T cells transiently overexpressing caspase-6 (Homo sapiens, UniProt P13797), sequence (P13797 whole entry): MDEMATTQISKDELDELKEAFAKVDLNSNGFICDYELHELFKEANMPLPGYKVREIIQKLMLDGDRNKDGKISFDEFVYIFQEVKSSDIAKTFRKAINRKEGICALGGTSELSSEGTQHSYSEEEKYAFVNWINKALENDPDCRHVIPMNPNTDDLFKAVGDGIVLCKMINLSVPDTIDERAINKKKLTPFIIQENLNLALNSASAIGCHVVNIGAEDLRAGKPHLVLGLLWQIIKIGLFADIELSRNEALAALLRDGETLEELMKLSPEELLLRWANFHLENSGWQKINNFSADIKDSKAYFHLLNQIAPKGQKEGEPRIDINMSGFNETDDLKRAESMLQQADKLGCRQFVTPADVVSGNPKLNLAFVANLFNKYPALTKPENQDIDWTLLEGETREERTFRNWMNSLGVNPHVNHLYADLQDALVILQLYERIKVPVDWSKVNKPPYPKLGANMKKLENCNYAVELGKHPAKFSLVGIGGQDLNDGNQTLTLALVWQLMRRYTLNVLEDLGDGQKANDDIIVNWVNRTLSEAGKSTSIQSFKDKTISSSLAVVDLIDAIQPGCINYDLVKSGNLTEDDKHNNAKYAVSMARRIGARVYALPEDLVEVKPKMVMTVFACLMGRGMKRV
proteins of HEK293T cells transiently overexpressing caspase-6 (Homo sapiens, UniProt P38606), sequence (P38606 whole entry): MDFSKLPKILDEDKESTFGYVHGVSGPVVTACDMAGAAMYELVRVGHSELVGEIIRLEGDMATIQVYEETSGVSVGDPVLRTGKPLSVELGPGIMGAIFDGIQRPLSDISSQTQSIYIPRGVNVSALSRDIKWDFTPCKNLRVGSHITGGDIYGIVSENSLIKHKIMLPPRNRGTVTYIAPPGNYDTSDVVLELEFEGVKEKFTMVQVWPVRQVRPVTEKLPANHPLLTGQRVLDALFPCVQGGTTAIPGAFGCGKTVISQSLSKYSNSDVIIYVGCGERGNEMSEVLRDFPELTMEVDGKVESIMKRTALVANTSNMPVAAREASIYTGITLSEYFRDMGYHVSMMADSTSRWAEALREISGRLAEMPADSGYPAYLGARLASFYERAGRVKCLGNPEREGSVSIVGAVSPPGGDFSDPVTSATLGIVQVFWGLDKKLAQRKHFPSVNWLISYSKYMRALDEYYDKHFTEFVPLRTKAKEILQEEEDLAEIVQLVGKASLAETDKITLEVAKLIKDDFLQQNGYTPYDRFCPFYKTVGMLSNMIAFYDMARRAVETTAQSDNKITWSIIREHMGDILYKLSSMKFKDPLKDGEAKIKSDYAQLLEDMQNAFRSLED
proteins of HEK293T cells transiently overexpressing caspase-6 (Homo sapiens, UniProt Q9Y2X3), sequence (Q9Y2X3 whole entry): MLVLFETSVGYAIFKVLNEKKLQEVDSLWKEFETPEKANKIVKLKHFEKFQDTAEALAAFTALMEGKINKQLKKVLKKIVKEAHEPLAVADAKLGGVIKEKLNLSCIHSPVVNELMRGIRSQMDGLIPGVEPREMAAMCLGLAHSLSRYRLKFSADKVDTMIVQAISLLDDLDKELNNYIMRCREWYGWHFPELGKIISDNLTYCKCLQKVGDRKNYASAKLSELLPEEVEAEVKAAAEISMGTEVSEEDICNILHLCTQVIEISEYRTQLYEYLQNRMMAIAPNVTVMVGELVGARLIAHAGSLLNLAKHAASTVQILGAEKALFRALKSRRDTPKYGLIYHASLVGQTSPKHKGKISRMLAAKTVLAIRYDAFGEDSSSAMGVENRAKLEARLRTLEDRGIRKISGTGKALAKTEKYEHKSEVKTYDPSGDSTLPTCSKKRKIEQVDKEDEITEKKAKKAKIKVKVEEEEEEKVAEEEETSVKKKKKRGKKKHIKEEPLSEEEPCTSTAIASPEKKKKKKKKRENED
proteins of HEK293T cells transiently overexpressing caspase-6 (Homo sapiens, UniProt Q04917), sequence (Q04917 whole entry): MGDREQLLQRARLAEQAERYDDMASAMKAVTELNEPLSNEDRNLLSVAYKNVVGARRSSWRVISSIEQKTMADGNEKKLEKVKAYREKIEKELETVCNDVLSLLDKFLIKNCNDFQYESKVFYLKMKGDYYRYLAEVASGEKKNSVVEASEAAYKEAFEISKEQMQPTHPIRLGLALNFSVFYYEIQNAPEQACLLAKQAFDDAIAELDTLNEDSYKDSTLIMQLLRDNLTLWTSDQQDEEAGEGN

Work on `C=CS(=O)(=O)N1C[C@H](C(=O)Nc2ccc(OC(F)(F)F)cc2)C[C@@H](c2ccccc2)C1` [3a] yielded an enrich.exp.med [1] of 0.7548, an enrich.exp.med [2] of 0.7055 and an enrich.exp.med [3] of 0.8526. It also gave an enrich.exp.med [4] of 0.6186, an enrich.exp.med ([5]; Comp, protein DYNC1H1 Q14204) of 1.335 and an enrich.exp.med.lin [5, 19] of 2.5227. For the same compound, the enrich.exp.med.log2 [5, 19] was 1.335, the enrich.exp.med [6] was 0.8033 and the enrich.exp.med ([7]; Comp, protein EIF3I Q13347) was 1.022. The enrich.exp.med.lin [7, 20] was 2.03, the enrich.exp.med.log2 [7, 20] was 1.022 and the enrich.exp.med [8] was 0.6361. The enrich.exp.med [9] was 0.707, the enrich.exp.med ([10]; Comp, protein EIF3L Q9Y262) was 1.059 and the enrich.exp.med.lin [10, 21] was 2.083. It also gave an enrich.exp.med.log2 [10, 21] of 1.059, an enrich.exp.med [11] of 0.678 and an enrich.exp.med [12] of 0.7213. It also gave an enrich.exp.med [13] of 0.6413, an enrich.exp.med [14] of 0.5985 and an enrich.exp.med [15] of 0.6107. It also gave an enrich.exp.med ([16]; Comp, protein PSMD1 Q99460) of 0.9459, an enrich.exp.med.lin [16, 22] of 1.926 and an enrich.exp.med.log2 [16, 22] of 0.9459. For the same compound, the enrich.exp.med [17] was 0.5835 and the enrich.exp.med [18] was 0.6036.

Source: article PMC10176470, “Engaging a Non-catalytic Cysteine Residue Drives Potent and Selective Inhibition of Caspase-6” (Journal of the American Chemical Society, 2023)
